Assays:
Assay type in all cases: cell-based
Pseudomonas fluorescens [1] = test: MIC and synergism (Kull) against Pseudomonas fluorescens, Landy minimal medium pH 7
Protocol: (§1) The synergism was determined by the method described by Kull et al. (F. C. Kull, P. C. Eismann, H. D. Sylvestrowicz, R. L. Mayer, Applied Microbiology 9, 538 to 541, 1961). The following relationships apply:
(§2) [formula] • Qa=amount of substance A • Qb=amount of substance B • MIC(A)=concentration of substance A which prevents microbial growth • MIC(B)=concentration of substance B which prevents microbial growth • MIC(A+B)=concentration of substance A+B which prevents microbial growth • SI=synergistic index, where SI=1 means additive effect • SI>1 means antagonism • SI<1 means synergism
(§3) Various concentrations of GDA and MIT and mixtures of the two abovementioned active substances were tested against the bacterium Pseudomonas fluorescens. The incubation is performed in Landy minimal medium at pH 7 and 26° C. The growth of Pseudomonas fluorescens was compared at various active substance concentrations with the growth without active substance. The lowest concentration at which growth was no longer detected is stated as the minimum inhibitory concentration (MIC).

Pseudomonas fluorescens [2] = test: MIC and synergism (Kull) against Pseudomonas fluorescens, Landy minimal medium pH 9
Protocol: as §1, §2
as §3, with “at pH 9 and 26°” for “at pH 7 and 26°”, “compared at the various active” for “compared at various active”

Corynebacterium = test: MIC and synergism (Kull) against Corynebacterium, Landy minimal medium pH 9
Protocol: as §1, §2
(§4) Various concentrations of GDA and MIT and mixtures of the two abovementioned active substances were tested against the bacterium Corynebacterium. The incubation is performed in Landy minimal medium at pH 9 and 26° C. The growth of Corynebacterium was compared at the various active substance concentrations with the growth without active substance. The lowest concentration at which growth was no longer detected is stated as the minimum inhibitory concentration (MIC).

Rhodotorula rubra = test: MIC and synergism (Kull) against yeast Rhodotorula rubra, malt extract liquid medium
Protocol: as §1, §2
as §4, with “yeast Rhodotorula rubra.” for “bacterium Corynebacterium.”, “malt extract liquid” for “Landy minimal”, “at” for “at pH 9 and”, “Rhodotorula rubra” for “Corynebacterium”

[3] = Landy minimal medium, pH 9, 26° C.

SMILES | MIC (Pseudomonas fluorescens [1]; pH 7) | MIC (Pseudomonas fluorescens [2]; pH 9) | MIC (Corynebacterium; pH 9) | MIC (Rhodotorula rubra; Rhodotorula) | MIC (Pseudomonas fluorescens [1]; Landy minimal medium, pH 7, 26° C.) | MIC (Pseudomonas fluorescens [2]; [3]) | MIC (Corynebacterium; [3]) | MIC (Rhodotorula rubra; Rhodotorula rubra, malt extract liquid medium, 26° C.)
Cn1sccc1=O [MIT, 2-methyl-2H-isothiazol-3-one] | 5 µg/mL | 20 µg/mL | 5 µg/mL | 50 µg/mL |  |  |  | 
O=CCCCC=O [GDA, glutardialdehyde] |  |  |  |  | 20 ppm | 50 ppm | 10 ppm | 100 ppm

Source: patent US20110009462A1, “STABLE, SYNERGISTIC MIXTURES” (LANXESS DEUTSCHLAND GMBH, priority 2007, published 2011)
